Experimental data published in ChEMBL document CHEMBL1145768, “Microsomal triglyceride transfer protein inhibitors: discovery and synthesis of alkyl phosphonates as potent MTP inhibitors and cholesterol lowering agents” (Bioorg Med Chem Lett, 2003).
pEC50, pIC50: −log10 of the molar value. Activity calls are given as the source filed them. The rule behind the calls is not given here.

How the values were obtained:
[1] = system: Cricetinae gen. sp.; assay: Inhibitory activity against plasma cholesterol level after oral administration (15 mg/kg/day) in hamsters; assay type: functional, Cricetulus griseus
[2] = target: T1, Microsomal triglyceride transfer protein large subunit (Bos taurus, UniProt P55156); assay: Inhibitory activity against microsomal triglyceride transfer protein (MTP)
T1 sequence (P55156 whole entry): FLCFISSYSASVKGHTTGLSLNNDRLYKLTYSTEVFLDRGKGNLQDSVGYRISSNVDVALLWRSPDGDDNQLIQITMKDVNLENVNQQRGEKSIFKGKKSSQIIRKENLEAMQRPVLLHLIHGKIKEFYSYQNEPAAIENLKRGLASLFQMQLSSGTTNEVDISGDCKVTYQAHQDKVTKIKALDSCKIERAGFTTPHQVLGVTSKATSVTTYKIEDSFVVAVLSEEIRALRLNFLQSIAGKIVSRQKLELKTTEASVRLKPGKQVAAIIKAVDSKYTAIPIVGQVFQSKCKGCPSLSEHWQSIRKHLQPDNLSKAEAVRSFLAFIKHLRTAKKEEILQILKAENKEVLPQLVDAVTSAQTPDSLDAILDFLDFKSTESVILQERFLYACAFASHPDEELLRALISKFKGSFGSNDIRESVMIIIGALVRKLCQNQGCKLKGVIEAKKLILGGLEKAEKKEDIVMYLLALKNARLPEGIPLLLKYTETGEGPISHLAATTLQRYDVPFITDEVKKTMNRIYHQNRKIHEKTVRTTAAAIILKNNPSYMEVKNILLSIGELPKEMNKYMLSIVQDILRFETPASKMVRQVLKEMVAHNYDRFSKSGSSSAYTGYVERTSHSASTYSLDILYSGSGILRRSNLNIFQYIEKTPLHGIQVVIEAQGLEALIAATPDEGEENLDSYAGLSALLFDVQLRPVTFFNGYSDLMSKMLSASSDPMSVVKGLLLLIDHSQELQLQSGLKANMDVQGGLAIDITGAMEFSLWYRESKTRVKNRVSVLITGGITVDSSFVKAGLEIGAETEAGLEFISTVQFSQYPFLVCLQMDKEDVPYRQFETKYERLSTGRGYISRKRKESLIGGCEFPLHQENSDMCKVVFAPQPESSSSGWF

[3] = system: HepG2; assay: Effective concentration against apolipoprotein A1 (ApoA1) from HepG2 cell using apolipoprotein secretion assay; assay type: functional, cell-based; conditions: Homo sapiens
[4] = system: HepG2; assay: Effective concentration against apolipoprotein B (ApoB) from HepG2 cell using apolipoprotein secretion assay; assay type: functional, cell-based; conditions: Homo sapiens
[5] = system: HepG2; assay: Effective concentration against secretion of apolipoprotein A1 (ApoA1) from HepG2 cell using apolipoprotein secretion assay; assay type: functional, cell-based; conditions: Homo sapiens
[6] = system: HepG2; assay: Effective concentration against secretion of apolipoprotein B (ApoB) from HepG2 cell using apolipoprotein secretion assay; assay type: functional, cell-based; conditions: Homo sapiens
[7] = system: Rattus norvegicus; assay: Inhibitory activity (25 mg/kg) against hepatic lipoprotein secretion; assay type: functional
[8] = system: Cricetinae gen. sp.; assay: Inhibitory activity against plasma cholesterol level after oral administration (qd) (100 mg/kg) for 3 days in hamsters; assay type: functional, Cricetulus griseus
[9] = system: Rattus norvegicus; assay: Effective dose for inhibition of lipoprotein production (in vivo) after intravenous administration using fasted triton rat assay; assay type: functional
[10] = system: Rattus norvegicus; assay: Effective dose for inhibition of lipoprotein production (in vivo) after oral administration using fasted triton rat assay; assay type: functional
[11] = system: Rattus norvegicus; assay: Ability to inhibit lipoprotein production (in vivo) after oral administration (50 mg/kg) using fasted triton rat assay;IA: inactive; assay type: functional, organism-based
[12] = system: Cricetinae gen. sp.; assay: Inhibitory activity against plasma cholesterol level after oral administration (15 mg/kg/day) over 3 days in hamsters; assay type: functional, Cricetulus griseus

## O=C(NCC(F)(F)F)C1(CCCCP(=O)(OCCCc2ccccn2)OCCCc2ccccn2)c2ccccc2-c2ccccc21
[1]
  Inhibition: 15%
[2]
  pIC50: 7.60

## CCCCOP(=O)(CCCCSc1nc2ccc(OCC)cc2s1)OCCCC
[2]
  pIC50: 4.92

## CC(C)OP(=O)(CCCCC1(C(=O)NCC(F)(F)F)c2ccccc2-c2ccccc21)OC(C)C
[2]
  pIC50: 6.55

## CCCCOP(=O)(CCCCC1(C(=O)NCCN2CCOCC2)c2ccccc2-c2ccccc21)OCCCC
[2]
  pIC50: 6.30

## CCCCOP(=O)(CCCCC1(C(=O)NCc2ccc(N)cc2)c2ccccc2-c2ccccc21)OCCCC
[2]
  pIC50: 6.05

## CCCCOP(=O)(CCCCCCC1(C(=O)NCC(F)(F)F)c2ccccc2-c2ccccc21)OCCCC
[2]
  pIC50: 7.35

## O=C(NC1CCN(CCCC2(C(=O)NCC(F)(F)F)c3ccccc3-c3ccccc32)CC1)c1ccccc1
[3]
  pEC50: < 5.48
[2]
  pIC50: 6.64
[4]
  pEC50: 7.10

## O=C(NCC(F)(F)F)C1(CCCCP(=O)(OCc2ccccn2)OCc2ccccn2)c2ccccc2-c2ccccc21
[2]
  pIC50: 7.57

## C=CCC1(C(=O)NCC)c2ccccc2-c2ccccc21
[2]
  pIC50: 5.66

## CCCCOP(=O)(CCCCCC1(C(=O)NCC(F)(F)F)c2ccccc2-c2ccccc21)OCCCC
[2]
  pIC50: 7.19

## CCCCOP(=O)(CCCSc1nc(-c2ccccc2)c(-c2ccccc2)[nH]1)OCCCC
[2]
  pIC50: < 4.52

## CC(C)COP(=O)(CCCCC1(C(=O)NCC(F)(F)F)c2ccccc2-c2ccccc21)OCC(C)C
[2]
  pIC50: 7.26

## CCCCOP(=O)(CCCCC1(C(=O)NCc2ccccn2)c2ccccc2-c2ccccc21)OCCCC
[2]
  pIC50: 6.33

## O=C(NCC(F)(F)F)C1(CCCCP(=O)(OCCc2ccccn2)OCCc2ccccn2)c2ccccc2-c2ccccc21
[2]
  pIC50: 7.40

## CCOP(=O)(CCCCC1(C(=O)NCC(F)(F)F)c2ccccc2-c2ccccc21)OCC
[2]
  pIC50: 6.84

## CCCCOP(=O)(CCCCC1(C(=O)NCCc2ccc(OC)cc2)c2ccccc2-c2ccccc21)OCCCC
[5]
  pEC50: < 6.48
[6]
  pEC50: 7.64
[2]
  pIC50: 7.68
[7]
  Inhibition: 15%

## O=C1c2ccccc2CN1C1CCN(CCC(c2ccccc2)c2ccccc2)CC1
[2]
  pIC50: 5.66

## CCCCOP(=O)(CCCSc1nc2ccc(OCC)cc2s1)OCCCC
[3]
  pEC50: 4.88
[2]
  pIC50: 5.35
[4]
  pEC50: 5.41

## CC(C)(C)COP(=O)(CCCCC1(C(=O)NCC(F)(F)F)c2ccccc2-c2ccccc21)OCC(C)(C)C
[2]
  pIC50: 7.48

## Cc1cccc(CCCOP(=O)(CCCCC2(C(=O)NCC(F)(F)F)c3ccccc3-c3ccccc32)OCCCc2cccc(C)n2)n1
[2]
  pIC50: 7.35

## CCCCOP(=O)(CCCCC1(C(=O)OC)c2ccccc2-c2ccccc21)OCCCC
[2]
  pIC50: 6.35

## CCCCOP(=O)(CCCOc1cccc2ccccc12)OCCCC
[2]
  pIC50: 4.52

## O=C(NCC(F)(F)F)C1(CCCCP(=O)(OCc2ccncc2)OCc2ccncc2)c2ccccc2-c2ccccc21
[2]
  pIC50: 7.07

## CCCNC(=O)C1(CCCCP(=O)(OCC)OCC)c2ccccc2-c2ccccc21
[2]
  pIC50: 6.87

## CCCCNC(=O)C1(CCCCP(=O)(OCCCC)OCCCC)c2ccccc2-c2ccccc21
[2]
  pIC50: 6.40

## O=C(NCC(F)(F)F)C1(CCCCP(=O)(OCc2cccnc2)OCc2cccnc2)c2ccccc2-c2ccccc21
[2]
  pIC50: 7.62

## CCCOP(=O)(CCCCC1(C(=O)NCC(F)(F)F)c2ccccc2-c2ccccc21)OCCC
[2]
  pIC50: 7.05

## CCCCOP(=O)(CCCCCSc1nc2ccc(OCC)cc2s1)OCCCC
[2]
  pIC50: 5.22

## CCCCOP(=O)(CCCSc1ccncc1)OCCCC
[2]
  pIC50: 4.57

## CCCCOP(=O)(CCCSc1nc(-c2ccccc2)c(-c2ccccc2)o1)OCCCC
[2]
  pIC50: 5.22

## CCCCOP(=O)(CCCCC1(C(=O)NCc2ccccc2)c2ccccc2-c2ccccc21)OCCCC
[5]
  pEC50: < 6.00
[6]
  pEC50: 7.24
[2]
  pIC50: 6.60

## CCCCOP(=O)(CCCSc1cccs1)OCCCC
[2]
  pIC50: < 4.00

## CCCCOP(=O)(CCCSc1nc2cc(OCC)ccc2[nH]1)OCCCC
[2]
  pIC50: 5.00

## CCCCOP(=O)(CCCCC1(C(=O)NCC(F)(F)F)c2ccccc2-c2ccccc21)OCCCC
[8]
  Inhibition: 15%
[5]
  pEC50: < 5.48
[6]
  pEC50: 8.15
[2]
  pIC50: 7.66
[9]
  ED30: 4 mg/kg
[10]
  ED30: 8 mg/kg

## CCCCOP(=O)(CCCOc1ccccc1)OCCCC
[2]
  pIC50: 5.32

## CCCCOP(=O)(CCCSc1nc2ccc(OCC)cc2o1)OCCCC
[2]
  pIC50: 5.30

## CCCCOP(=O)(CCCSc1nc2ccc(OCC)cc2n1C)OCCCC
[2]
  pIC50: 5.22

## CCCCOP(=O)(CCCCC1(C(=O)NCCC)c2ccccc2-c2ccccc21)OCCCC
[5]
  pEC50: 5.10
[6]
  pEC50: 7.00
[2]
  pIC50: 7.85
[11]
  Activity: inactive
[9]
  ED30: 15 mg/kg

## Cc1cccc(COP(=O)(CCCCC2(C(=O)NCC(F)(F)F)c3ccccc3-c3ccccc32)OCc2cccc(C)n2)n1
[2]
  pIC50: 7.96
[12]
  Inhibition: 35%
